Data: publication PMC3708395, “Hepatoprotective and Antioxidant Effects of Saponarin, Isolated from Gypsophila trichotoma Wend. on Paracetamol-Induced Liver Damage in Rats” (BioMed Research International, 2013)
Where “and” joins values, the source holds several entries; their conditions need not be identical. Equal entries are not always repeated. Entries after “also recorded” stand apart in the source; their conditions may differ.

Experiments:
Male Wistar rats [1] = assay: Lipid peroxidation (MDA) in rat liver homogenate, in vivo paracetamol model; conditions: for MDA: rat liver homogenate
Description: The animals were divided into six groups (n = 6). […] The animals in all groups were sacrificed on the eighth day of the beginning of the experiment. Livers were taken for assessment of biochemical parameters. For all following experiments the excised livers were washed out with cold saline solution (0.9% NaCl), blotted dray, weighed, and homogenized with appropriate buffers. Lipid peroxidation was determined by measuring the rate of production of thiobarbituric acid reactive substances (TBARS) (expressed as malondialdehyde (MDA) equivalents) described by Polizio and Peña with slight modifications. Briefly one volume of homogenate was mixed with 1 mL 25% trichloroacetic acid (TCA) and 1 mL 0.67% thiobarbituric acid (TBA). Samples were then mixed thoroughly, heated for 20 min in a boiling water bath, cooled and centrifuged at 4000 rpm for 20 min. The absorbance of supernatant was measured at 535 nm against a blank that contained all the reagents except the tissue homogenate. MDA concentration was calculated using a molar extinction coefficient of 1.56 × 10^5 M^−1 cm^−1 and expressed in nmol/g wet tissue.

Male Wistar rats [2] = assay: GSH level in rat liver homogenate, in vivo paracetamol model; conditions: for GSH: rat liver homogenate
Description: The animals were divided into six groups (n = 6). […] The animals in all groups were sacrificed on the eighth day of the beginning of the experiment. Livers were taken for assessment of biochemical parameters. For all following experiments the excised livers were washed out with cold saline solution (0.9% NaCl), blotted dray, weighed, and homogenized with appropriate buffers. GSH was assessed by measuring nonprotein sulfhydryls after precipitation of proteins with TCA, using the method described by Bump et al.. Briefly, tissues were homogenized in 5% trichloroacetic acid (TCA) and centrifugated for 20 min at 4 000 ×g. […] The absorbance was determined at 412 nm and the results expressed as nmol/g wet tissue.

Male Wistar rats [3] = assay: Antioxidant enzyme activities (SOD, CAT, GPx, GR, GST) in rat liver homogenate, in vivo paracetamol model; conditions: for CAT / GPx / GR / GST / SOD: rat liver homogenate
Source text: The animals were divided into six groups (n = 6). […] The animals in all groups were sacrificed on the eighth day of the beginning of the experiment. Livers were taken for assessment of biochemical parameters. For all following experiments the excised livers were washed out with cold saline solution (0.9% NaCl), blotted dray, weighed, and homogenized with appropriate buffers. The livers were rinsed in ice-cold physiological saline and minced with scissors. […] Catalase (CAT) activity was determined by measuring the decrease in absorbance at 240 nm. […] SOD activity was expressed as nmol of epinephrine that are prevented from autoxidation after addition of the sample. […] The rate of disappearance of NADPH with time was determined by monitoring absorbance at 340 nm. Results are expressed in nmol/mg. Glutathione reductase activity (GR) was measured according to the method of Pinto et al. by following NADPH oxidation spectrophotometrically at 340 nm and using an extinction coefficient of 6.22 mM^−1 cm^−1. […] The enzyme activity is expressed as nmol of CDNB-GSH conjugate formed/min/mg protein.

Male Wistar rats [4] = assay: Histopathological study of liver; format: in vivo, rat
Source text: The animals were divided into six groups (n = 6). […] The animals in all groups were sacrificed on the eighth day of the beginning of the experiment. Livers were taken for assessment of biochemical parameters. For all following experiments the excised livers were washed out with cold saline solution (0.9% NaCl), blotted dray, weighed, and homogenized with appropriate buffers. For light microscopic evaluation, liver tissues were fixed in 10% buffered formalin and then thin sections (4 μm) were subsequently stained with hematoxylin/eosin for general histological features determination. Sections were studied under light microscope Leica DM 500.

Male Wistar rats [5] = assay: Phase I of biotransformation: cytochrome P450, EMND and AH in rat liver microsomes after in vivo treatment
Description: The animals were divided into six groups (n = 6). […] The animals in all groups were sacrificed on the eighth day of the beginning of the experiment. Livers were taken for assessment of biochemical parameters. For all following experiments the excised livers were washed out with cold saline solution (0.9% NaCl), blotted dray, weighed, and homogenized with appropriate buffers. The excised, perfused, and minced livers were homogenized with 3 mL of 1.17% KCl than centrifugated at 10 000 ×g for 30 min. The supernatant fractions were further centrifugated at 105 000 ×g for 60 min. The resulting microsomal pellets were stored at −20°C until assayed. At the day of assay the microsomal pellets were resuspended and diluted with phosphate buffer EDTA (pH = 7.4). Liver protein concentration was measured, using the method of Lowry and was adjusted to 4 mg/mL. (1) Assessment of Cytochrome P450 Quantity. Cytochrome P450 was quantified spectrophotometrically as a complex with CO at 450 nm and expressed as nmol/mg^−1 protein [28]. […] The method used 4-hydroxylation of aniline to 4-aminophenol that is chemically converted to a phenol-indophenol complex with an absorption maximum at 630 nm. Enzyme activity was expressed as nmol/min/mg. […] The enzyme activity was evaluated by the formation of formaldehyde, trapped in the solution as semicarbazone, and measured by the colorimetric procedure of Nash, at 415 nm. Enzyme activity was expressed as nmol/min/mg.

[6] = design: method as in earlier work; conditions: concentration range 0.5 mg/mL; cited from earlier work
isolated rat hepatocytes = assay: Paracetamol-induced model of toxicity in isolated rat hepatocytes; conditions: 30 min preincubation with saponarin 60–0.006 μg/mL, then paracetamol 100 μmol for one hour; concentration-dependent
Description: The effect of saponarin was compared to those of silymarin (50–0.005 μg/mL). The following parameters were measured to assess the functional status of hepatocytes: cell viability, lactate dehydrogenase (LDH) activity, reduced glutathione (GSH) levels, and malondialdehyde (MDA) quantity. Cell viability was assessed by Trypan blue exclusion method [19]. The dye was used at a final concentration of 0.05% and cells were counted under light microscope (×100). At the end of incubation, the cells were recovered via centrifugation at 400 ×g at 4°C. The supernatant was used for LDH and MDA assessment as described by Bergmeyer et al. [21] and Fau at al. [19], respectively. GSH measurement following the method used by Fau at al. [19] was assessed in the sediment.

[7] = paracetamol 600 mg/kg i.p. alone
[8] = paracetamol 600 mg/kg i.p. alone, compared to control animals
[9] = saponarin 80 mg/kg bw/day p.o. 7 days, alone
[10] = saponarin 80 mg/kg p.o. 7 days pretreatment then paracetamol 600 mg/kg i.p.
[11] = saponarin pretreatment seven days then single i.p. paracetamol, compared to paracetamol alone
[12] = rat liver microsomes, saponarin 80 mg/kg bw/day p.o. 7 days, alone
[13] = saponarin alone 80 mg/kg p.o. 7 days, vs control

Compound: CC(=O)Nc1ccc(O)cc1 [paracetamol]
- increase of MDA level in rat liver homogenate (Male Wistar rats [1]; paracetamol 600 mg/kg i.p. alone, vs control animals): 30%
- MDA (Male Wistar rats [1]; [7]): 0.854 ± 0.04 nmol/g protein
- reduction in GSH levels in rat liver homogenate (Male Wistar rats [2]; [8]): 83%
- GSH (Male Wistar rats [2]; [7]): 0.96 ± 0.05 nmol/g protein
- decrease in CAT activity (Male Wistar rats [3]; [8]): 27%
- decrease in GPx activity (Male Wistar rats [3]; [8]): 31-32%
- decrease in GR activity (Male Wistar rats [3]; [8]): 38%
- decrease in GST activity (Male Wistar rats [3]; [8]): 31% and 31-32%
- CAT (Male Wistar rats [3]; [7]): 88.3 ± 10 μmol H2O2/min/mg protein
- GPx (Male Wistar rats [3]; [7]): 0.089 ± 0.01 nmol/min/mg protein
- GR (Male Wistar rats [3]; [7]): 0.137 ± 0.02 nmol/min/mg protein
- GST (Male Wistar rats [3]; [7]): 0.160 ± 0.01 nmol CDNB-GSH conjugate formed/min/mg protein
- SOD (Male Wistar rats [3]; [7]): 0.114 ± 0.012 nmol/min/mg protein
- liver histopathology (Male Wistar rats [4]; paracetamol 600 mg/kg i.p. alone, hematoxylin/eosin, light microscopy): treatment-related changes associated with hepatotoxicity; also recorded: centriacinar and microvesicular accumulation of fats

Compound: apigenin 6-C-glucosyl-7-O-glucoside [saponarin]
- MDA (Male Wistar rats [1]; [9]): 0.635 ± 0.07 nmol/g protein
- MDA content relative to control level (Male Wistar rats [1]; [10]): restored to the control level
- reduction of MDA in rat liver homogenate (Male Wistar rats [1]; saponarin 80 mg/kg p.o. 7 days pretreatment then paracetamol 600 mg/kg i.p., compared to PC-treated group): 18%
- GSH (Male Wistar rats [2]; [9]): 5.14 ± 0.31 nmol/g protein
- GSH levels compared to the paracetamol-only group (Male Wistar rats [2]; [10]): significantly higher levels of GSH
- CAT (Male Wistar rats [3]; [9]): 110.4 ± 16 μmol H2O2/min/mg protein
- GPx (Male Wistar rats [3]; [9]): 0.125 ± 0.02 nmol/min/mg protein
- GR (Male Wistar rats [3]; [9]): 0.207 ± 0.03 nmol/min/mg protein
- GST (Male Wistar rats [3]; [9]): 0.208 ± 0.02 nmol CDNB-GSH conjugate formed/min/mg protein
- SOD (Male Wistar rats [3]; [9]): 0.158 ± 0.015 nmol/min/mg protein
- increase in GPx activity (Male Wistar rats [3]; [11]): 21%
- increase in GR activity (Male Wistar rats [3]; [11]): 39%
- increase in GST activity (Male Wistar rats [3]; [11]): 21%
- increase in SOD activity (Male Wistar rats [3]; [11]): 24%
- AH activity (Male Wistar rats [5]; [12]): 0.047 ± 0.004 nmol/mg protein
- Cytochrome P450 (Male Wistar rats [5]; [12]): 0.244 ± 0.05 nmol/mg protein
- EMND activity (Male Wistar rats [5]; [12]): 0.371 ± 0.011 nmol/mg protein
- decrease in AH activity (Male Wistar rats [5]; [13]): 37%
- decrease in EMND activity (Male Wistar rats [5]; [13]): 24%
- decrease in total P450 quantity (Male Wistar rats [5]; [13]): 25%
- liver histopathology (Male Wistar rats [4]; rats pretreated with saponarin (80 mg/kg p.o. 7 days) then challenged with paracetamol 600 mg/kg i.p.): lower intensity of mononuclear accumulations and the presence of single cells showing intracellular oedema; also recorded: significant improvement of hepatocellular architecture
- inhibition of DPPH radical [6]: 88.8%
- protection against paracetamol-induced injury (cell viability, LDH activity, MDA quantity, GSH levels) (isolated rat hepatocytes): prevented the liver injury
